The numbers were not newly measured in patent publication US9402907B2, “Pharmaceutical composition containing diamine derivative” (DAIICHI SANKYO COMPANY, LIMITED, priority 2011, dated 2016), which cites them from elsewhere.

Where two headings read alike, the source gives them in different places.

Consider `CN1CCc2nc(C(=O)N[C@@H]3C[C@@H](C(=O)N(C)C)CC[C@@H]3NC(=O)C(=O)Nc3ccc(Cl)cn3)sc2C1` [Compound I, N^1-(5-chloropyridin-2-yl)-N^2-((1S,2R,4S)-4-[(dimethylamino)carbonyl]-2-{[(5-methyl-4,5,6,7-tetrahydrothiazolo[5,4-c]pyridin-2-yl)carbonyl]amino}cyclohexyl)ethanediamide], for which the solubility entry runs as follows: (aqueous solution having a pH in the neutral region (e.g., a neutral buffer)) “reduced solubility”; (strongly acidic aqueous solution) “favorable solubility”.
